Assay results as given in paper PMC8623418, “Novel Multitarget Hydroxamic Acids with a Natural Origin CAP Group against Alzheimer’s Disease: Synthesis, Docking and Biological Evaluation” (Pharmaceutics, 2021).

Legend:
5xFAD transgenic mice [1] = experiment: Novel Object Recognition Test in 5xFAD mice; type: in vivo; conditions: 15 mg/kg i.p. for 20 days, testing trial 24 h after familiarization
Experimental: All animal procedures were approved by the Animal Care and Use Committee of IPAC RAS. For in vivo studies, 11-month-old male mice of the 5xFAD line (Tg(APPSwFlLon,PSEN1*M146L*L286V) 6799Vas/J) were used. The animals were housed in cages with free access to water and food in a room with a 12 h/12 h light–dark cycle, at a temperature of 23 ± 1 °C and humidity of 50 ± 5%. Before the series of experiments, animals were randomly divided into four groups (n = 8 per group): (1) wild-type group (C57BL6/j mouse line); (2) 5xFAD group; (3) 5xFAD + 15 group; and (4) 5xFAD + 25 group.
Both compounds 15 and 25 were dissolved in saline solution and DMSO (10%) immediately before use and intraperitoneally administered to animals for 20 days at a dose of 15 mg/kg body weight for experiments. In the control group, the vehicle solution (saline and DMSO (10%), intraperitoneal) was administered with the same time schedule.
The Novel Object Recognition Test assesses a mouse’s ability to remember if it has previously encountered an object or not. The same box that had been used in the open field test was used for the Novel Object Recognition Test. Mice were habituated to the box one day before the test, during the open field test. […] All trials were videotaped and analyzed with a computer-operated EthoVision XT system (Noldus, Wageningen, the Netherlands). […]

5xFAD transgenic mice [2] = experiment: Morris Water Maze Test in 5xFAD mice; type: in vivo; conditions: for Mean latency time to hidden platform, first training day / Mean latency time to hidden platform, fourth training day: 15 mg/kg i.p. for 20 days, mean ± SEM; for Mean latency time to hidden platform, first training day: day 1; for Mean latency time to hidden platform, fourth training day: day 4
Experimental: All animal procedures were approved by the Animal Care and Use Committee of IPAC RAS. For in vivo studies, 11-month-old male mice of the 5xFAD line (Tg(APPSwFlLon,PSEN1*M146L*L286V) 6799Vas/J) were used. The animals were housed in cages with free access to water and food in a room with a 12 h/12 h light–dark cycle, at a temperature of 23 ± 1 °C and humidity of 50 ± 5%. Before the series of experiments, animals were randomly divided into four groups (n = 8 per group): (1) wild-type group (C57BL6/j mouse line); (2) 5xFAD group; (3) 5xFAD + 15 group; and (4) 5xFAD + 25 group. Both compounds 15 and 25 were dissolved in saline solution and DMSO (10%) immediately before use and intraperitoneally administered to animals for 20 days at a dose of 15 mg/kg body weight for experiments. In the control group, the vehicle solution (saline and DMSO (10%), intraperitoneal) was administered with the same time schedule. The Morris Water Maze Test was performed based on the Morris paradigm, 1985, modified. This test allowed us to evaluate spatial learning and memory formation in mice. The experimental apparatus consisted of a circular pool (diameter, 150 cm; height, 60 cm; OpenScience, Russia) containing water at 22 ± 1 °C. The lighting conditions were as follows: dark side of the pool was 50 lx; bright side was 75 lx. The pool was equally divided into quadrants. A platform (diameter, 10 cm) was positioned inside the reservoir, placed 1 cm below the water surface in the target quadrant of the maze. The platform and pool were white with anti-glare coating, which, together with shadowless lamp lighting, created the effect of an invisible platform that was hidden under the water. As visual cues, we used 4 figures (OpenScience, Moscow, Russia) fixed on the racks and located at the pool sides. The test is based on two phases: the acquisition phase (training days) and the retention phase (probe trial) (Figure 7A). Initially, the training session was performed, during which each animal was placed into the water facing the pool wall. After placing, each animal was given 60 s to find and mount onto the hidden platform. […] Each mouse received training sessions, and the test was repeated four times for four consecutive days in acquisition training (sum 16 trials for training). All 4 start positions for each day (north, south, east, west) were deliberately randomized. The probe trial was performed on the 5th day after the training phase: there were no platform and the mice were given 90 s for swimming. The criteria for the effectiveness of learning and memory formation were the time spent in the target and wrong quadrants, the latency period, and the number of entries to the platform area.

[3] = Stability in rat blood plasma, LC–MS/MS; type: in vitro ADME; conditions: 1000 ng/mL spike
Experimental: EDTA-stabilized rat blood plasma was used in the study. The spikes were prepared by adding 100 µL of the solution of a compound to 900 µL of plasma, followed by continuous shaking. A 100 µL aliquot of a sample was taken and mixed with 900 µL of MeOH, shaken for 15 min, and centrifuged. Then, 100 µLc of the supernatant was transferred to a vial insert and analyzed.
HPLC–MS/MS analyses were performed using a Shimadzu LC-20AD Prominence chromatograph equipped with a SIL-20AC cooled autosampler and a gradient pump. A column filled with a reversed-phase ProntoSil 120-AQ C18 sorbent (Econova, Novosibirsk) was used. Water with the addition of 0.1% HCOOH was used as mobile phase A, and methanol containing 0.1% HCOOH was used as mobile phase B. The gradient was as follows: 0 min—5% B; 1 min—5% B; 2 min—95% B; 5 min—100% B; the flow rate was 300 μL/min; the injection volume was 10 μL. The column was then equilibrated for the following analysis. […]
To study the stability of the compounds, their solutions (spikes) in rat blood plasma were prepared with a concentration of 1000 ng/mL. […] Aliquots of the spike with a volume of 100 μL were taken after 5, 15, 30, 60, 120, 180, and 270 min, after which the sample was mixed with MeOH, shaken for 10 min, then centrifuged and analyzed with LC–MS/MS.

[4] = 5th day, versus untreated 5xFAD

Time stable in rat blood plasma [3] [h]	Structure (SMILES)	Novel object preference (episodic memory) (5xFAD transgenic mice [1])	Mean latency time to hidden platform, first training day (5xFAD transgenic mice [2]) [s]	Mean latency time to hidden platform, fourth training day (5xFAD transgenic mice [2]) [s]	Probe trial: entries to the platform zone (5xFAD transgenic mice [2]; [4])	Probe trial: latency for entering the platform zone (5xFAD transgenic mice [2]; [4])	Platform search strategies (egocentric to allocentric navigation) (5xFAD transgenic mice [2]; training phase, 15 mg/kg i.p.)	half-life at 1000 ng/mL ([3]; rat, EDTA-stabilized rat blood plasma, estimated from the graph) [h]	Probe trial: time spent in the wrong quadrant (5xFAD transgenic mice [2]; [4])
	O=C(CCCCCCC(=O)NC1C2CC3CC(C2)CC1C3)NO (centres unmarked) [compound 15, N^1-(Adamant-2-yl)-N^8-Hydroxyoctanediamide]	significantly showed a strong preference and spent more time studying a new object	53.76 ± 2.79	34.28 ± 4.32	increased entries to the platform	significantly reduced the latency for entering the platform zone	normalization of this situation and the successful formation of the allocentric cognitive map	1 to 1.17	
≥ 4.5	O=C(/C=C/c1ccc(C(=O)NO)cc1)NC1C2CC3CC(C2)CC1C3 (centres unmarked) [compound 25, 4-((E)-3-((-Adamantan-2-yl)amino)-3-Oxoprop-1-en-1-yl)-N-Hydroxybenzamide]	began to show memory impairment when presented with a new object	53.46 ± 2.75	38.63 ± 3.01	improvement in these spatial memory parameters was also observed	improvement in these spatial memory parameters was also observed			significant differences were found in the time spent in the wrong quadrant
